Laboratory results reported in US6344351B2, “(R)-transaminase from arthrobacter” (Kaneka Corporation, priority 1995, dated 2002).
Read-outs that look alike come from different tables or passages of the source.

Experiments:
[1] = test system: Arthrobacter species KNK168 strain; assay: Amino donor test; (R)-DMA formation by cultured cells; type: cell-based
Experimental: The cultured cells were harvested by centrifugation, and the harvested cells were suspended in a reaction mixture (pH 8.5) containing 1% of 1-(3,4-dimethoxyphenyl)-2-propanone, […] of Triton X-100, and 1% of an amino donor shown in Table 2. The components were reacted at 35° C. for 20 hours.

[2] = test system: Arthrobacter species KNK168 strain; assay: Inducer added to culture medium; (R)-DMA formation by the separated cells; type: cell-based; details: cells reacted 30° C., 20 hours, 1% 1-(3,4-dimethoxyphenyl)-2-propanone, 1% (RS)-1-methylpropylamine
Experimental: When culturing the Arthrobacter species KNK168 strain by the method described in Example 1, (RS)-1-methylpropylamine, (RS)-1-methylbutylamine, (RS)-3-amino-2,2-dimethylbutane, (RS)-2-amino-1-butanol, or (RS)-1-phenylethylamine was added to the medium in place of (R)-1-(3,4-dimethoxyphenyl)-2-aminopropane ((R)-DMA). The cells were separated from the medium, and the reaction was carried out at 30° C. for 20 hours using the above cells in a reaction mixture containing 1% of 1-(3,4-dimethoxyphenyl)-2-propanone and 1% of (RS)-1-methylpropylamine.

[3] = test system: (R)-form-specific transaminase of Arthrobacter sp. KNK168; assay: Influence of reaction inhibitors on purified transaminase of present invention; type: biochemical; details: for Transaminase of Present Invention (Relative Activity: %) with inhibitor: inhibitor 1 mM, without addition = 100
Excerpt: (§1) The differences with the ω-amino acid transaminase derived from Pseudomonas sp. F-1 (Agric. Biol. Chem., 42, 2363-2367 (1978), Agric. Biol. Chem., 43, 1043-1048 (1979), J. Biol. Chem., 258, 2260-2265 (1983)) which have been well studied among the ω-amino acid transaminases, and with the benzylamine transaminase of Okada et al. (Japanese Patent Laid-Open No. Hei 6-178685) are summarized and shown in Table 2. In a case of the transaminase action in the present invention, the data of the purified enzyme are used, and in cases of those by other two enzymes, the data of the purified enzymes which are disclosed in each of the literature publication and patent publication are used. Pyruvic acid is used as an amino acceptor in all cases.

[4] = molecular target: T1, ω-amino acid transaminase derived from Pseudomonas sp. F-1 (Pseudomonas putida, UniProt P28269); details: inhibitor 1 mM; without addition = 100; cited from earlier work
T1 sequence (P28269 1-449): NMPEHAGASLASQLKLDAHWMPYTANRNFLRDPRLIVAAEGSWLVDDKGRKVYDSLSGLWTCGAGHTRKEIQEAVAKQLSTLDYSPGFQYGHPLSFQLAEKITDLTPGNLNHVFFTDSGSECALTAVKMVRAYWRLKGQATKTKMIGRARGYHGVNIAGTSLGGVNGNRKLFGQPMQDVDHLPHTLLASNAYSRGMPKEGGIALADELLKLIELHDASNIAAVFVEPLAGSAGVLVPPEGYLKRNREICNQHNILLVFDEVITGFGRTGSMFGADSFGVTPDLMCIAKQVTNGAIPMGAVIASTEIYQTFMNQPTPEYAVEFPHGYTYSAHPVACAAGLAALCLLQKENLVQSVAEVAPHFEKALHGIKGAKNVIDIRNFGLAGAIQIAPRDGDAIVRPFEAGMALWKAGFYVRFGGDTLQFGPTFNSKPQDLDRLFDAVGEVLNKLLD

[5] = test system: (R)-form-specific transaminase of Arthrobacter sp. KNK168; assay: Reactivity of purified transaminase of present invention to amino compounds, pyruvic acid as amino acceptor; type: biochemical; design: Transaminase of Present Invention (Relative Activity: %), Substrate Specificity: concentration or dose not given beside the values; details: for Transaminase of Present Invention (Relative Activity: %), Substrate Specificity: pyruvic acid as amino acceptor
Excerpt: as §1
Using the purified enzyme obtained in Example 9, reactivities to various amino compounds when using pyruvic acid as an amino acceptor were evaluated. 150 μl of a solution of the purified enzyme diluted ten-folds was added to 150 μl of a substrate solution (0.1 M potassium phosphate buffer (pH 8.3), 40 mM pyruvic acid, 0.1 mM pyridoxal phosphate, and 40 mM various amino compounds). The components were reacted at 30° C. for 1 hour. The reaction tube was transferred into boiling water to stop the reaction, and, thereafter, a part of the reaction mixture was diluted five-folds. Ten μl of 0.1 M boric acid buffer (pH 8.0) and 20 μl of an ethanol solution of 80 mM of 4-fluoro-7-nitro-2,1,3-benzoxadiazole (NBD-F) were added to 10 μl of the above-mentioned diluted reaction mixture. The components were reacted at 60° C. for 1 minute, and, thereafter, the reaction mixture was ice-cooled, and 460 μl of 5 mM HCl was added thereto. This reaction mixture was analyzed by high-performance liquid chromatography using fine pack C18-5 column and using a 0.1 M potassium phosphate buffer (pH 6.5) and CH3CN (90:10) as an eluent solution to detect formation of alanine-NBD using excitation wavelength of 470 nm and using detection wave of […]. The results thereof are shown in Table 8 in terms of relative activity in the case of using […] as a substrate.

[6] = test system: benzylamine transaminase of Okada et al.; design: Transaminase of Okada et al. (Relative Activity: %), Substrate Specificity: concentration or dose not given beside the values; details: cited from earlier work; for Transaminase of Okada et al. (Relative Activity: %), Substrate Specificity: purified enzyme, patent publication data, pyruvic acid as amino acceptor
[7] = molecular target: T1, ω-amino acid transaminase derived from Pseudomonas sp. F-1; design: concentration or dose not given beside the values; details: purified enzyme, literature data; pyruvic acid as amino acceptor; cited from earlier work
[8] = test system: benzylamine transaminase of Okada et al.; details: without addition = 100, cited from earlier work
[9] = test system: transaminase (intracellular enzyme) of Arthrobacter sp. KNK168; assay: Activity of the transaminase (intracellular enzyme) against typical substrates of ω-aminotransferases; type: biochemical
[10] = test system: transaminase derived from Arthrobacter; assay: Usability as amino group donor, transaminase of present invention; type: biochemical; details: +/− without printed key, or words
Excerpt: Further, the transaminase derived from Arthrobacter which can be used in the present invention is different from the above-mentioned enzyme derived from Brevibacterium in many other aspects.

[11] = test system: Arthrobacter species KNK168 strain; assay: Resolution of racemic 2-amino-1-methoxypropane by cells with aldehyde amino acceptors; type: cell-based; details: 150 mM aldehyde as amino acceptor, 200 mM racemic 2-amino-1-methoxypropane, 30° C., 20 hours
Experimental: The Arthrobacter species KNK168 strain was cultured in the same manner as in Example 13, and the cells were separated from 1 ml of the culture. The cells were suspended in 1 ml of a reaction mixture containing a 0.1 M Tris-hydrochloric acid buffer (pH 8.5), 50 mg of racemic 2-amino-1-methoxypropane, 37.5 mg of pyruvic acid, and 0.1% of sodium dodecyl sulfate. The components were reacted at 30° C. for 24 hours with stirring. As a result of the analysis after the reaction, 23.4 mg of 2-amino-1-methoxypropane remained, and its optical purity was 95% ee ((S)-form).
By carrying out the same reaction as in Example 14 using 200 mM racemic 2-amino-1-methoxypropane, and 150 mM n-butylaldehyde or propionaldehyde, the components were reacted at 30° C. for 20 hours. As a result of the analysis thereof, the (S)-form of 2-amino-1-methoxypropane was concentrated, and the ratio of the (S)-form was 76% in a case of using n-butylaldehyde, and 58% in a case of using propionaldehyde.

With CCCC(C)N (racemic) [(RS)-1-Methylbutylamine] the “function as amino donor” value [1] was “functioned as amino donors” and the “(R)-DMA Formed (%), inducer in culture medium” value (shortened to “(R)-DMA Formed (%), inducer”) [2] was 13.0%.

With CCC(C)N (racemic) [(RS)-1-Methylpropylamine] the “function as amino donor” value [1] was “functioned as amino donors”, the “(R)-DMA Formed (%), amino group donor” value ([1]; 1% amino donor, 1% 1-(3,4-dimethoxyphenyl)-2-propanone, Triton X-100, pH 8.5, 35° C., 20 hours) was 28.2% and the “(R)-DMA Formed (%), inducer” value [2] was 22.3%.

For CC(N)c1ccccc1 (racemic) [(RS)-1-Phenylethylamine], the “function as amino donor” value [1] was “most highly preferable” and the “(R)-DMA Formed (%), inducer” value [2] was 8.0%.

With CCC(N)CO (racemic) [(RS)-2-Amino-1-butanol] the “(R)-DMA Formed (%), inducer” value [2] was 12.9%.

In the case of CC(N)C(C)(C)C (racemic) [(RS)-3-Amino-2,2-dimethylbutane], the “(R)-DMA Formed (%), inducer” value [2] is reported as 18.6%.

For NC1C=CC=C(C(=O)O)C1 (racemic) [Gabaculine], the “Transaminase of Present Invention (Relative Activity: %) with inhibitor” value [3] is listed as 24% and the “ω-Amino Acid Transaminase (Relative Activity: %) with inhibitor” value [4] is listed as 0%.

In the case of COc1ccc(C[C@@H](C)N)cc1OC [(R)-DMA, (R)-1-(3,4-dimethoxyphenyl)-2-aminopropane], the “(R)-DMA Formed (%), inducer” value [2] is reported as 0.9%.

In the case of NCc1ccccc1 [Benzylamine], the “Relative Activity (%) of amino compounds” value ([5]; purified enzyme, 40 mM amino compound in substrate solution, 40 mM pyruvic acid, pH 8.3, 30° C., 1 hour, (R)-1-phenylethylamine = 100) is listed as 0.8%, the “Transaminase of Present Invention (Relative Activity: %), Substrate Specificity” value ([5]; purified enzyme) is listed as 0.8% and the “action of benzylamine transaminase on substrate” value ([6]; in the presence of pyruvic acid) is listed as “strongly acts”. The “Transaminase of Okada et al. (Relative Activity: %), Substrate Specificity” value [6] was 100% and the “ω-Amino Acid Transaminase (Relative Activity: %), Substrate Specificity” value [7] was 45%.

In the case of O=S(=O)([O-])[O-].[Cu+2] [CuSO4], the “Transaminase of Present Invention (Relative Activity: %) with inhibitor” value [3] is given as 44% and the “Transaminase of Okada et al. (Relative Activity: %) with inhibitor” value ([8]; inhibitor 0.5 mM) is given as 5%.

For NO [Hydroxylamine], the “influence of reaction inhibitor on the transaminase derived from Arthrobacter” value [3] is listed as “affected only a little”, the “Transaminase of Present Invention (Relative Activity: %) with inhibitor” value [3] is listed as 17% and the “Transaminase of Okada et al. (Relative Activity: %) with inhibitor” value ([8]; inhibitor 0.1 mM) is listed as 30%. The “ω-Amino Acid Transaminase (Relative Activity: %) with inhibitor” value [4] was 0%.

In the case of NNc1ccccc1 [Phenylhydrazine], the “influence of reaction inhibitor on the transaminase derived from Arthrobacter” value [3] is listed as “affected only a little”, the “Transaminase of Present Invention (Relative Activity: %) with inhibitor” value [3] is listed as 82% and the “Transaminase of Okada et al. (Relative Activity: %) with inhibitor” value ([8]; inhibitor 1 mM) is listed as 27%. For the same molecule, the “ω-Amino Acid Transaminase (Relative Activity: %) with inhibitor” value [4] was 6%.

For NCCCCN [Putrescine], the “action of the transaminase derived from Arthrobacter on the substrate” value (“action of the transaminase derived” below) [5] is listed as “does not act”, the “Transaminase of Present Invention (Relative Activity: %), Substrate Specificity” value ([5]; purified enzyme) is listed as 0% and the “Transaminase of Okada et al. (Relative Activity: %), Substrate Specificity” value [6] is listed as 0%. For the same molecule, the “ω-Amino Acid Transaminase (Relative Activity: %), Substrate Specificity” value [7] was 55% and the “Relative Activity (%) as amino donor” value ([9]; amino acceptor 2-ketoglutaric acid, (R)-1-phenylethylamine/pyruvic acid control = 100) was 0%.

In the case of Cl.N [ammonium chloride], the “Amino Group Donor, Transaminase of Present Invention” value (“Amino Group Donor, Transaminase” below) [10] is reported as “cannot be used as an amino donor”.

For N[C@@H](CC(=O)O)C(=O)O [aspartic acid], the “Amino Group Donor, Transaminase” value [10] was “cannot be used as an amino donor”.

For N[C@@H](CCC(=O)O)C(=O)O [glutamic acid], the “Amino Group Donor, Transaminase” value [10] was “cannot be used as an amino donor”.

In the case of CCCCN [n-Butylamine], the “action of the transaminase derived” value [5] is listed as “does not act”, the “Transaminase of Present Invention (Relative Activity: %), Substrate Specificity” value ([5]; purified enzyme) is listed as 0% and the “Transaminase of Okada et al. (Relative Activity: %), Substrate Specificity” value [6] is listed as 0%. For the same molecule, the “ω-Amino Acid Transaminase (Relative Activity: %), Substrate Specificity” value [7] was 60%.

In the case of CCCC=O [n-butylaldehyde], the “ratio of the (S)-form of 2-amino-1-methoxypropane” value [11] is reported as 76%.

In the case of O=C(O)c1cc[c]([Hg][Cl])cc1 [p-Chloromercuribenzoic acid], the “Transaminase of Present Invention (Relative Activity: %) with inhibitor” value [3] is listed as 53%, the “Transaminase of Okada et al. (Relative Activity: %) with inhibitor” value ([8]; inhibitor 0.1 mM) is listed as 9% and the “ω-Amino Acid Transaminase (Relative Activity: %) with inhibitor” value [4] is listed as 100%.

In the case of CCC=O [propionaldehyde], the “ratio of the (S)-form of 2-amino-1-methoxypropane” value [11] is reported as 58%.

In the case of NCCC(=O)O [β-Alanine], the “action of the transaminase derived” value [5] is listed as “does not act”, the “Transaminase of Present Invention (Relative Activity: %), Substrate Specificity” value ([5]; purified enzyme) is listed as 0% and the “Transaminase of Okada et al. (Relative Activity: %), Substrate Specificity” value [6] is listed as 0%. For the same molecule, the “ω-Amino Acid Transaminase (Relative Activity: %), Substrate Specificity” value [7] was 100%, the “activity of the transferase to amino donor” value [9] was “does not act” and the “Relative Activity (%) as amino donor” value ([9]; amino acceptor pyruvic acid, (R)-1-phenylethylamine control = 100) was 0%.

For NCCc1ccccc1 [β-Phenethylamine], the “Transaminase of Present Invention (Relative Activity: %), Substrate Specificity” value ([5]; purified enzyme) is given as 0%, the “Transaminase of Okada et al. (Relative Activity: %), Substrate Specificity” value [6] is given as 9% and the “ω-Amino Acid Transaminase (Relative Activity: %), Substrate Specificity” value [7] is given as 54%.
